In patent US9139502B2, “Use of an urushiol compound in preparation of pharmaceutical compositions for inhibiting Smad3 phosphorylation” (Southern Hospital, Southern Medical University, priority 2013, dated 2015):

Legend:
[1] = molecular target: T1, interaction of Smad2 with TβRI (Rattus norvegicus, UniProt O70436); assay: Immunoprecipitation of Smad2 with TβRI in vitro; format: cell-based; parameters: endogenous in cells; host or cells: NRK52E; conditions: NRK52E cells, GQ-5 2.5 nM pre-treated 1 h, TGF-β1 10 ng/ml 1 h
T1 sequence (O70436 whole entry): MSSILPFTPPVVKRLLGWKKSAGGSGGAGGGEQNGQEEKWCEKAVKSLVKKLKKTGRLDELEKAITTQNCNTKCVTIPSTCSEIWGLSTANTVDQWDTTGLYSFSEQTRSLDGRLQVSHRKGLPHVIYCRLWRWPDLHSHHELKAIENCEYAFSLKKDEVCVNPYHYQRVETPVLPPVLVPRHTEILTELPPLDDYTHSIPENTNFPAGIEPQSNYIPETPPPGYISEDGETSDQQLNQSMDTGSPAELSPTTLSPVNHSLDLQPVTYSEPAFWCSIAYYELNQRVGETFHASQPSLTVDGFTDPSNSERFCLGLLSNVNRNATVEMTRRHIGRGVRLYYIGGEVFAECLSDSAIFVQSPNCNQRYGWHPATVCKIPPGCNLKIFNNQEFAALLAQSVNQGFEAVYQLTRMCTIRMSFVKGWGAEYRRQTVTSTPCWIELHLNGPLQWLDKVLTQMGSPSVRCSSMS
Description: (§1) NRK52E cells were cultured in DMEM-Ham's medium supplemented with 10% fetal bovine serum. The cells reached at approximately 50% confluence were used for in vitro experiments. Cells were serum-starved for 12 h, and randomized into 4 groups: (1) Controls; (2) GQ-5 only; (3) TGF-β1 only; (4) TGF-β1+GQ-5
(2) GQ-5 only: pre-treated with GQ-5 (2.5 nM) for 1 h, followed with DMEM for 1 h
(3) TGF-β1 only: pre-treated with DMSO for 1 h, followed with TGF-β1 (10 ng/ml) for 1 h
(§2) (4) TGF-β1+GQ-5: pre-treated with GQ-5 (2.5 nM) for 1 h, followed with TGF-β1 (10 ng/ml) for 1 h
GQ-5 was dissolved in DMSO. Cells were treated as described. Cell lysates were collected for immunoprecipitation to examine the interaction among TGFβ type I receptor (TβRI), TβRII, Smad3 and Smad2.

ERK = assay: Western blot of ERK phosphorylation in UUO kidneys; format: in vivo, rat; conditions: UUO rats, GQ-5 40 mg/kg daily i.p. right after UUO, sacrificed day 14
Description: (§3) Male Sprague-Dawley rats with body weight 200 to 250 g were randomized into 3 groups (n=6 in each group): (1) sham operated rats; (2) UUO rats; (3) UUO+GQ-5 rats.
(§4) GQ-5 was dissolved in 5% propylene glycol.
(§5) (3) UUO+GQ-5 rats: daily intraperitoneal injection of GQ-5 (40 mg/kg body weight) right after UUO;
(§6) UUO was performed using an established protocol as described. GQ-5 was dissolved in 5% propylene glycol. Rats were administrated with GQ-5 as described before. All the rats were sacrificed 14 days after UUO. Western blot analyses were performed to examine the Smad4, Smad7 expression and p38, PI3K, ERK phosphorylation.

p38 [2] = assay: Western blot of TGF-β1-induced p38 phosphorylation in vitro; format: cell-based, rat; conditions: NRK52E and NRK49F cells, GQ-5 2.5 nM pre-treated 1 h, TGF-β1 10 ng/ml 1 h
Description: as §1, with “NRK52E and NRK49F” for “NRK52E”, “medium (Gibco, Life Techologies, NY, USA)” for “medium”, “serum (Gibco, Life Techologies, NY, USA).” for “serum.”
(§7) (2) GQ-5 only: pre-treated with GQ-5 (2.5 μM) for 1 h, followed with DMEM for 1 h
(§8) (3) TGF-β1 only: pre-treated with DMSO (0.1%) for 1 h, followed with TGF-β1 (10 ng/ml) for 1 h
as §2
(§9) GQ-5 was dissolved in DMSO. Cells were treated as described. cell lysates were immunoblotted with antibodies against Smad4, Smad7, phospho-p38, p38, phospho-PI3K, PI3K, phosphor-ERK, and ERK.

p38 [3] = assay: Western blot of p38 phosphorylation in UUO kidneys; format: in vivo, rat; conditions: UUO rats, GQ-5 40 mg/kg daily i.p. right after UUO, sacrificed day 14
Description: as §3, §4, §5, §6

Smad7 = assay: Western blot of Smad7 expression in UUO kidneys; format: in vivo, rat; conditions: UUO rats, GQ-5 40 mg/kg daily i.p. right after UUO, sacrificed day 14
Description: as §3, §4, §5, §6

fibronectin [4] = assay: Fibronectin expression in UUO kidney tissue (real-time PCR, immunohistochemistry, Western blot); format: in vivo, rat; conditions: UUO rats, GQ-5 40 mg/kg daily i.p., sacrificed day 14
Description: Male Sprague-Dawley rats were randomized into 4 groups (n=6 in each group): (1) sham operated rats; (2) UUO rats; (3) UUO+GQ-5 d1 rats; (4) UUO+GQ-5 d7 rats.
as §4
(3) UUO+GQ-5 d1 rats: daily intraperitoneal injection of GQ-5 (40 mg/kg body weight) right after UUO;
(4) UUO+GQ-5 d7 rats: daily intraperitoneal injection of GQ-5 (40 mg/kg body weight) 7 days after UUO.
UUO was performed using an established protocol as described. GQ-5 was dissolved in 5% propylene glycol. Rats were administrated with GQ-5 as described before. All the rats were sacrificed 14 days after UUO. HE staining, Masson trichrome staining were performed to examine the renal tissue injury, and Real-time PCR analyses, immunohistochemical staining, and Western blot analyses were performed to examine α-SMA, collagen I and fibronectin expression in kidney tissue

PI3K = assay: Western blot of TGF-β1-induced PI3K phosphorylation in vitro; format: cell-based, rat; conditions: NRK52E and NRK49F cells, GQ-5 2.5 nM pre-treated 1 h, TGF-β1 10 ng/ml 1 h
Description: as §1, with “NRK52E and NRK49F” for “NRK52E”, “medium (Gibco, Life Techologies, NY, USA)” for “medium”, “serum (Gibco, Life Techologies, NY, USA).” for “serum.”
as §7, §8, §2, §9

fibronectin [5] = assay: Real-time PCR of TGF-β1-induced fibronectin mRNA in vitro; format: cell-based, rat; conditions: NRK 52E and NRK 49F cells, GQ-5 0.1-2.5 μM pre-treated 1 h, TGF-β1 10 ng/ml 36 h
Description: as §1, with “NRK52E and NRK49F” for “NRK52E”, “into 6” for “into 4”, “TGF-β1+GQ-5 0.1 μM; (5) TGF-β1+GQ-5 0.5 μM; (6) TGF-β1+GQ-5 2.5 μM” for “TGF-β1+GQ-5”
(2) GQ-5 only: pre-treated with GQ-5 (2.5 μM) for 1 h, followed with DMEM for 36 h
(3) TGF-β1 only: pre-treated with DMSO for 1 h, followed with TGF-β1 (10 ng/ml) for 36 h
(4) TGF-β1+GQ-5 0.1 μM: pre-treated with GQ-5 (0.1 μM) for 1 h, followed with TGF-β1 (10 ng/ml) for 36 h
(5) TGF-β1+GQ-5 0.5 μM: pre-treated with GQ-5 (0.5 μM) for 1 h, followed with TGF-β1 (10 ng/ml) for 36 h
(6) TGF-β1+GQ-5 2.5 μM: pre-treated with GQ-5 (2.5 μM) for 1 h, followed with TGF-β1 (10 ng/ml) for 36 h
GQ-5 was dissolved in DMSO. Cells were treated as described. Cells were collected for mRNA extraction. Real-rime PCR was performed to examine the mRNA expression of α-SMA, collagen I and fibronectin.

[6] = molecular target: T1, interaction of Smad2 with TβRI; assay: Immunoprecipitation of Smad2 with TβRI in UUO kidneys; format: in vivo; conditions: GQ-5 40 mg/kg daily i.p. right after UUO, sacrificed day 14
Description: as §3, §4, §5
as §6, with “Immunoprecipitation” for “Western blot”, “interaction among TβRI, TβRII, Smad3” for “Smad4, Smad7 expression”, “Smad2.” for “p38, PI3K, ERK phosphorylation.”

CCCCCC/C=C\CCCCCCCc1cccc(O)c1O [GQ-5, 3-[(Z)-pentadec-8-enyl]catechol]
interaction of Smad2 with TβRI [1]: did not affect | phosphorylation of ERK (ERK): did not affect | TGF-β1-induced phosphorylation of p38 (p38 [2]): did not affect | phosphorylation of p38 (p38 [3]): did not affect | expression of Smad7 (Smad7): did not affect | up-regulation of fibronectin at both mRNA and protein level (fibronectin [4]): significantly inhibited | TGF-β1-induced phosphorylation of PI3K (PI3K): did not affect | TGF-β1-induced mRNA expression of fibronectin (fibronectin [5]): significantly inhibited | interaction of Smad2 with TβRI [6]: did not affect
